Among the data in PubChem BioAssay (NCI) are TGI and GI50 values, retold here.

Some test systems named below: HT29 colon; OVCAR-5 ovarian; SNB-75 CNS; NCI-H23 lung; RXF 393 renal; HCT-15 colon; HOP-92 NSCLC; MDA-MB-435; NCI/ADR-RES ovarian.
What all share (assay): NCI-60 cell line screen, 48 h

Molecules are shown by their SMILES. Where “and” joins values, the source holds several entries; their conditions need not be identical. Equal entries are not always repeated.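 The compound was tested at five concentrations on cells cultured in 96-well plates, with a 48-hour exposure period. The concentration for 50% growth inhibition is given as GI50. At the TGI there is no net growth.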

As to `FC(F)(F)P1C2C=CC(CC2)C1(F)F` (centres undefined), the TGI in the experiment on HT29 colon, in the experiment with OVCAR-5 ovarian, in the experiment with SNB-75 CNS, in the experiment with NCI-H23 lung, with RXF 393 renal and in the experiment with HCT-15 colon was more than 100 µM in each case.
For the compound `O=C(O)C(CS)NCc1c2ccccc2[n+]([O-])c2ccccc12` (centres undefined), the TGI with HT29 colon is more than 100 µM; with OVCAR-5 ovarian, more than 100 µM; with SNB-75 CNS, more than 100 µM; in the experiment on NCI-H23 lung, more than 100 µM; with HOP-92 NSCLC, 46.5 µM; with HCT-15 colon it was more than 100 µM.
Turning to `CCOC(=O)N1CCN(Cc2cc(=O)n3cc(C)ccc3n2)CC1`, the TGI in the experiment with HT29 colon, in the experiment on OVCAR-5 ovarian, with SNB-75 CNS, in the experiment on NCI-H23 lung, with MDA-MB-435 and in the experiment with HOP-92 NSCLC was more than 100 µM throughout. Further, the TGI with NCI/ADR-RES ovarian and in the experiment on HCT-15 colon was more than 100 µM in each case.
Consider `Cc1c(C(=O)CSc2nc3ccc([N+](=O)[O-])cc3[nH]2)c(=O)n(-c2ccccc2)n1C`, for which the TGI in the experiment on HT29 colon, in the experiment with OVCAR-5 ovarian, with SNB-75 CNS, in the experiment with NCI-H23 lung, in the experiment with HOP-92 NSCLC and with HCT-15 colon was more than 100 µM throughout.
As to `CC(=O)O[C@H]1C(=O)[C@@]2(C)C([C@H](OC(=O)c3ccccc3)[C@]3(O)C[C@H](OC(=O)[C@H](O)[C@H](NC(=O)c4ccccc4)c4ccc(Cl)cc4)C(C)=C1C3(C)C)C1(OC(C)=O)CO[C@@H]1C[C@@H]2O` (some centres undefined), the TGI in the experiment on OVCAR-5 ovarian was 0.0407 µM; with RXF 393 renal, 0.0644 µM and 0.0869 µM; in the experiment on HCT-15 colon it was more than 100 µM. Also, the GI50 in the experiment on RXF 393 renal was 18.7 nM; in the experiment with HCT-15 colon it was 58.3 nM.
Take `CCN(CC)CCNC(=O)c1ccc([N+](=O)[O-])cc1OC`: the TGI in the experiment on HT29 colon, in the experiment on OVCAR-5 ovarian, in the experiment on SNB-75 CNS, in the experiment with NCI-H23 lung, in the experiment on RXF 393 renal and in the experiment with HOP-92 NSCLC was more than 100 µM throughout. Further, the TGI in the experiment on HCT-15 colon is more than 100 µM.
For the compound `COc1cc(C2CC(c3cccc(Nc4ccncc4)c3)=NN2c2cc(Cl)cc(Cl)c2)cc(OC)c1OC` (centres undefined), the GI50 was 1310 nM in the experiment on SNB-75 CNS; 1790 nM with NCI-H23 lung; 1610 nM with MDA-MB-435; 1120 nM with HOP-92 NSCLC; 1840 nM in the experiment with NCI/ADR-RES ovarian; 1790 nM in the experiment with HCT-15 colon. In addition, the TGI with SNB-75 CNS came out at 3.06 µM; in the experiment on NCI-H23 lung, 3.38 µM; in the experiment with MDA-MB-435 it was 3.15 µM; with HOP-92 NSCLC, 2.44 µM; with NCI/ADR-RES ovarian, 3.53 µM; with HCT-15 colon, 3.43 µM.
For the compound `CCOc1ccc(N2C(=O)C3c4[nH]c5ccccc5c4C4CCC(C(C)(C)C)CC4C3C2=O)cc1` (centres undefined), the TGI is more than 100 µM in the experiment on HT29 colon; more than 100 µM with SNB-75 CNS; more than 100 µM in the experiment with NCI-H23 lung; 71 µM in the experiment with RXF 393 renal; more than 100 µM in the experiment with HOP-92 NSCLC; more than 100 µM with HCT-15 colon.
As for `CC(=O)Oc1c(C)cc(-c2cc(C)c(OC(C)=O)c(C)c2)cc1C`, the TGI with HT29 colon was more than 100 µM; with OVCAR-5 ovarian, more than 100 µM; in the experiment with SNB-75 CNS it was 60.9 µM; in the experiment with NCI-H23 lung, 42.8 µM; with MDA-MB-435, 10.8 µM; in the experiment with HOP-92 NSCLC it was more than 100 µM. For the same compound, the TGI in the experiment on NCI/ADR-RES ovarian and in the experiment on HCT-15 colon was more than 100 µM each time.
Consider `O=C(Cc1ccccc1)NN1C(=O)C(Cl)C1c1cccc(O)c1` (centres undefined), for which the TGI with HT29 colon was found to be 31.1 µM; in the experiment with OVCAR-5 ovarian it was 27.5 µM; in the experiment on SNB-75 CNS, 74.6 µM; in the experiment with NCI-H23 lung, 35.2 µM; in the experiment on RXF 393 renal, 32.3 µM; in the experiment with HCT-15 colon, 42.7 µM.
With `O=C1C=C(N2CCCC2)C=C(N2CCCC2)C1`, the TGI in the experiment on HT29 colon, in the experiment with OVCAR-5 ovarian, in the experiment with SNB-75 CNS, in the experiment with NCI-H23 lung, with RXF 393 renal and with HOP-92 NSCLC was more than 100 µM in each case. This compound had a TGI in the experiment with HCT-15 colon of more than 100 µM.
For `O=C1CC2CC=C[C@H]3c4cc5c(cc4C(=O)N1C23)OCO5` (some centres undefined), the TGI in the experiment on HT29 colon, with SNB-75 CNS, in the experiment with NCI-H23 lung, in the experiment with RXF 393 renal and with HCT-15 colon was more than 50 µM each time.
As for `CC(=O)Oc1ccc(N2C(=O)C3c4[nH]c5ccccc5c4C4CCC(C(C)(C)C)CC4C3C2=O)cc1` (centres undefined), the TGI in the experiment with HT29 colon amounted to 9.38 µM; with OVCAR-5 ovarian, 14.6 µM; in the experiment with NCI-H23 lung, 8.79 µM; in the experiment on RXF 393 renal it was 5.64 µM; with MDA-MB-435, 22.6 µM; with HOP-92 NSCLC it was 7.84 µM. Also, the TGI with NCI/ADR-RES ovarian is 14.7 µM; in the experiment with HCT-15 colon it was 12.3 µM.
In the case of `O=C1Nc2cccc3ncn(c23)C2=C1CCCC2`, the TGI with OVCAR-5 ovarian, in the experiment on NCI-H23 lung, with RXF 393 renal and with HCT-15 colon was more than 100 µM throughout.
